Among the test systems are A498 renal; HCT-15 colon; HS 578T breast; K-562 leukemia; MCF7 breast; NCI-H226 lung; NCI-H23 lung; NCI/ADR-RES ovarian; RPMI-8226 leukemia; SNB-75 CNS.
Holding throughout (experiment): DTP human tumour cell line panel, 48 h

Where “and” joins values, the source holds several entries; their conditions need not be identical. Equal entries are not always repeated.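 Grown in 96-well plates, cells were treated for 48 hours with each compound at five concentrations. Insufficient inhibition: endpoint recorded as highest concentration tested. GI50: concentration for 50% inhibition of growth. TGI denotes the concentration required for complete inhibition of growth.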

Broadly, the GI50 is the concentration that inhibits growth by half. For orientation: TGI means the concentration giving total growth inhibition.

As for `C/C(=C\COc1c2c(cc3c1CCO3)OC1(C=C2)OC(CC/C(C)=C/COc2c3ccoc3cc3oc(=O)ccc23)C(C)(C)O1)CCC(O)C(C)(C)O` (stereo not given), the GI50 in the assay on A498 renal is 32.8 µM; with HCT-15 colon, 85 µM; in the assay with HS 578T breast it was 27.3 µM; in the assay with K-562 leukemia, 3.82 µM; in the assay with MCF7 breast, 5.62 µM; in the assay on NCI-H226 lung, 58.7 µM. The GI50 is 33.7 µM in the assay on NCI-H23 lung, 23.8 µM in the assay with NCI/ADR-RES ovarian, 2.95 µM in the assay with RPMI-8226 leukemia and 21.1 µM in the assay with SNB-75 CNS. Further, the total growth inhibition concentration (TGI) in the assay with A498 renal, in the assay with HCT-15 colon, in the assay on HS 578T breast, in the assay on K-562 leukemia, in the assay with MCF7 breast and with NCI-H226 lung was > 100 µM each time. Moreover, the concentration for total growth inhibition (TGI) with NCI-H23 lung is > 100 µM; in the assay with NCI/ADR-RES ovarian, > 100 µM; with RPMI-8226 leukemia, 23.2 µM; in the assay on SNB-75 CNS, > 100 µM.
In the case of `O=C(NCc1ccco1)c1ccc(NC2=C(Cl)C(=O)N(Cc3ccccc3)C2=O)cc1`, the GI50 in the assay with A498 renal is 29.6 µM; in the assay with HCT-15 colon, 17.7 µM; in the assay with HS 578T breast, 43.3 µM; with K-562 leukemia, 21.2 µM; in the assay with MCF7 breast, 3.91 µM; in the assay on NCI-H226 lung, 17.2 µM. The GI50 in the assay with NCI-H23 lung is 13.8 µM; in the assay on NCI/ADR-RES ovarian, 18.3 µM; with RPMI-8226 leukemia it was 8.52 µM; with SNB-75 CNS, 41.9 µM. For the same molecule, the TGI in the assay on A498 renal is 62.5 µM; in the assay on HCT-15 colon, 74.4 µM; in the assay on HS 578T breast, > 100 µM; in the assay with K-562 leukemia, 49.7 µM; with MCF7 breast it was 23.8 µM; with NCI-H226 lung it was 60.8 µM. Moreover, the TGI with NCI-H23 lung was 27.5 µM; in the assay on NCI/ADR-RES ovarian, 39.5 µM; in the assay with RPMI-8226 leukemia, 23.6 µM; with SNB-75 CNS, > 100 µM.
`O=C(NN=C1CCCCC1)c1[nH]c2ccc(F)cc2c1-c1ccccc1`: the GI50 is 38.1 µM with A498 renal; 15.6 µM in the assay with HCT-15 colon; 48.3 µM with HS 578T breast; 5.91 µM with K-562 leukemia; 26.8 µM with MCF7 breast; 49.1 µM in the assay on NCI-H226 lung. For the same molecule, the GI50 with NCI-H23 lung was 33.5 µM; in the assay with NCI/ADR-RES ovarian, 23.7 µM; in the assay on RPMI-8226 leukemia it was 40.5 µM; in the assay on SNB-75 CNS it was 19.6 µM. The concentration for total growth inhibition (TGI) is > 100 µM in the assay with A498 renal; 50.9 µM with HCT-15 colon; > 100 µM in the assay with HS 578T breast; 26.6 µM with K-562 leukemia; 80.4 µM in the assay with MCF7 breast; > 100 µM with NCI-H226 lung. Besides, the concentration for total growth inhibition (TGI) with NCI-H23 lung is > 100 µM; in the assay with NCI/ADR-RES ovarian, 86.1 µM; in the assay on RPMI-8226 leukemia it was > 100 µM; with SNB-75 CNS, 58.1 µM.
Regarding `CC/C(=C(/c1ccc(O)cc1)c1ccc(OCCN2CCCCC2)cc1)c1ccc(OC)cc1`, the GI50 with A498 renal is 4.29 µM; in the assay on HCT-15 colon, 1.45 µM; in the assay on HS 578T breast, 2.09 µM; in the assay with K-562 leukemia, 0.29 µM; in the assay on MCF7 breast, 0.0707 µM; with NCI-H226 lung, 16.8 µM. Moreover, the GI50 was 10.1 µM in the assay with NCI-H23 lung, 8.15 µM with NCI/ADR-RES ovarian, 1.24 µM in the assay on RPMI-8226 leukemia and 10.4 µM with SNB-75 CNS. Further, the TGI turned out to be 17.6 µM in the assay on A498 renal; 5.46 µM in the assay on HCT-15 colon; 5.52 µM in the assay on HS 578T breast; 1.16 µM in the assay with K-562 leukemia; 2.08 µM in the assay on MCF7 breast; 37.9 µM with NCI-H226 lung. The TGI was determined as 23.4 µM in the assay with NCI-H23 lung, 22.4 µM in the assay on NCI/ADR-RES ovarian, 3.61 µM in the assay with RPMI-8226 leukemia and 23.3 µM with SNB-75 CNS.
Turning to `C[C@H]1[C@H]2[C@H]3CC[C@@H]4[C@@]5(C)C/C(=C/c6cccnc6)C(=O)C(C)(C)[C@@H]5CC[C@@]4(C)[C@]3(C)CC[C@]23CO[C@]1(C)[C@@H](C(=O)/C=C\c1cccnc1)C3`, the GI50 in the assay with A498 renal was 0.661 µM; in the assay with HCT-15 colon, 0.982 µM; in the assay on HS 578T breast it was 1.44 µM; with K-562 leukemia it was 0.151 µM; with MCF7 breast, 0.842 µM; with NCI-H226 lung it was 0.97 µM. Besides, the GI50 is 1.03 µM with NCI-H23 lung, 1.54 µM in the assay with NCI/ADR-RES ovarian, 0.255 µM in the assay with RPMI-8226 leukemia and 0.99 µM in the assay on SNB-75 CNS. For the same molecule, the TGI was 1.54 µM in the assay with A498 renal; 2.56 µM with HCT-15 colon; 7.4 µM in the assay on HS 578T breast; > 50 µM in the assay with K-562 leukemia; 6.25 µM in the assay on MCF7 breast; 2.1 µM in the assay on NCI-H226 lung. In addition, the TGI in the assay with NCI-H23 lung was 2.48 µM; in the assay with NCI/ADR-RES ovarian, > 50 µM; in the assay on RPMI-8226 leukemia, 2.26 µM; in the assay with SNB-75 CNS it was 3.69 µM.
Regarding `CC1(C)CCC(C)(C)c2c1ccc(O)c2Cc1c(O)ccc2c1C(C)(C)CCC2(C)C`, the TGI in the assay on A498 renal was determined as 3.43 µM; with HCT-15 colon it was 3.98 µM; with HS 578T breast, 8.85 µM; with K-562 leukemia, 5.41 µM; in the assay on MCF7 breast, 3.83 µM; in the assay on NCI-H226 lung it was 3.88 µM. The TGI is 4.11 µM with NCI-H23 lung, 4.43 µM in the assay with NCI/ADR-RES ovarian, 4.47 µM in the assay on RPMI-8226 leukemia and 5.33 µM in the assay on SNB-75 CNS.
Regarding `CC(=O)Oc1cc2c(OC(C)=O)c(-c3c(C)cc4c(C(C)C)c(OC(C)=O)c(OC(C)=O)cc4c3OC(C)=O)c(C)cc2c(C(C)C)c1OC(C)=O`, the GI50 with A498 renal was 4.91 µM and 4.51 µM and 11.5 µM; in the assay on HCT-15 colon, 4.94 µM and 5.21 µM and 7.97 µM; in the assay with HS 578T breast it was 18.7 µM and 20.1 µM and 8.85 µM; with K-562 leukemia, 21.3 µM and 6.13 µM and 9.67 µM; with MCF7 breast, 6.42 µM and 7.03 µM and 10.3 µM; in the assay on NCI-H226 lung it was 1.14 µM and 4.72 µM and 8.69 µM. The GI50 with NCI-H23 lung is 5.06 µM and 5.46 µM and 8.84 µM; with NCI/ADR-RES ovarian, 7.87 µM and 8.95 µM and 20 µM; in the assay with RPMI-8226 leukemia it was 5.36 µM and 5.79 µM and 7.94 µM; with SNB-75 CNS, 2.32 µM and 13.7 µM and 16.3 µM. Moreover, the TGI in the assay on A498 renal was 10 µM and 11.7 µM and 37.3 µM; in the assay on HCT-15 colon, 9.98 µM and 10.5 µM and 18.2 µM; in the assay on HS 578T breast, 49.8 µM and 55.2 µM and 21.6 µM; in the assay on K-562 leukemia, 63.1 µM and > 21.4 µM and 25.8 µM; with MCF7 breast, 19.5 µM and 21.5 µM and 27.1 µM; in the assay with NCI-H226 lung, 2.58 µM and 11.1 µM and 20.9 µM. Also, the TGI in the assay on NCI-H23 lung was 9.63 µM and 9.93 µM and 19.1 µM; in the assay on NCI/ADR-RES ovarian, 33.1 µM and 32.7 µM and > 55.3 µM; with RPMI-8226 leukemia, 14 µM and 15.4 µM and 20.4 µM; in the assay with SNB-75 CNS, 24.9 µM and > 52.7 µM and 62.8 µM.
